Source: patent US7964736B2, “Phosphagen synthesis” (Nour Heart, Inc., priority 2004, dated 2011)
Like-named read-outs stand apart in the source and are kept apart here.

Experiments:
[1] = system: canine heart, regional warm ischemia (LAD); assay: Regional warm ischemia (LAD), intact AMI model: coronary artery occlusion followed by reperfusion; format: in vivo; settings: LAD for 1 hour, and 2 hours reperfusion
isolated rabbit hearts [2] = assay: Isolated ischemic rabbit hearts; format: in vivo
heart (cardioprotection) = assay: Dose-response study of cardioprotective effect; format: in vivo
dog hearts = assay: Inotropic or chronotropic effect on dog hearts; format: in vivo
Description: As described above, although the mechanism by which CCr preserves the heart during ischemia and restores cardiac function during reperfusion is not fully understood, it is likely to be related to preservation of ATP. […] Since the breakdown of ATP is the immediate source of energy for contraction, and that contractile performance decreases precipitously and ceases when only 20% of ATP is depleted, the reported CCr preservation of over 85% of ATP (loss of only 15%) in ischemic myocardium is likely the major contributor to the observed restoration of post-ischemic myocardial contractility (see Allam M E, et al., Surg. Forum XLI:246-249, 1990, which is incorporated by reference in its entirety).

[3] = system: canine heart, regional warm ischemia (LAD); settings: cited from earlier work
[4] = system: rat heart, global warm ischemia; settings: ischemia time 7, 9, 10 min; cited from earlier work
[5] = system: canine heart, hypothermic cardioplegic arrest; settings: cited from earlier work; for results (restoration of cardiac function): canine
[6] = system: rat hearts, normothermic cardioplegic arrest; settings: ischemia time 40 min; cited from earlier work
isolated rabbit hearts [7] = settings: cited from earlier work
[8] = system: ischemic isolated rat hearts; settings: cited from earlier work
chopped whole brain = settings: 0.5% in-vitro for 90 minutes; cited from earlier work
[9] = intact canine model, coronary artery occlusion followed by reperfusion

Structure (SMILES): NC1=NCCN1CC(=O)O [CCr, 1-carboxymethyl-2-iminoimidazolidine]
- cell damage compared to control hearts [1]: marked reduction in cell damage
- tissue damage (isolated rabbit hearts [2]; 600 mg/kg intravenous for 2 hours prior to removing and perfusing hearts in-vitro for two hours): did not induce tissue damage
- histology after 2 hours reperfusion (contraction bands, eosinophilic changes) (isolated rabbit hearts [2]; 600 mg/kg intravenous, versus control hearts): only occasional small foci of contraction bands and no significant eosinophilic changes
- protection (Nourin-1, ATP and CrP levels) (isolated rabbit hearts [2]; hearts perfused with drug, without preinjection): no protection was observed
- cardioprotective effect (heart (cardioprotection); 150 mg/kg): No effect
- cardioprotective effect (heart (cardioprotection); 300 mg/kg): strong cardioprotective effect
- cardioprotective effect (heart (cardioprotection); 600 mg/kg): strong cardioprotective effect
- inotropic or chronotropic effect (dog hearts): no inotropic or chronotropic effect
- ATP maintained, of normal non-ischemic levels [3, 9]: 85%
- CrP maintained, of normal non-ischemic levels [3, 9]: 97%
- loss of ATP [3, 9]: 15%
- loss of CrP [3, 9]: 3%
- results (restoration of cardiac function) ([3]; ischemia time 1 hr, canine, drug prior to ischemia): Restoration
- preservation of ATP ([3]; ischemic myocardium): over 85%
- results (restoration of cardiac function) [4]: Restoration
- defibrillation ([5]; bypass surgery model, untreated canines required external defibrillation): defibrillated spontaneously
- results (restoration of cardiac function) ([5]; ischemia time 1 hr): Restoration
- results (restoration of cardiac function) ([5]; ischemia time 3 hrs): Restoration
- results (restoration of cardiac function) [6]: Restoration
- levels of ATP and CrP (isolated rabbit hearts [7]; isolated ischemic rabbit hearts): maintained high levels
- Nourin-1 released (isolated rabbit hearts [7]; treated hearts versus controls): significant reduction
- defibrillation during reperfusion ([8]; fed rats versus control rats): spontaneously defibrillated sooner
- reduction of myocardial ATP, exhaustion of high-energy phosphates, onset of rigor tension during cardiac ischemia ([8]; long-term feeding (up to 3 weeks) with 1%, rats and chickens): significantly delayed
- ATP depletion and onset of rigor ([8]; prior feeding to rats, ischemic isolated hearts): delayed ATP depletion and the onset of rigor
- number of hearts recovering mechanical function upon reperfusion ([8]; treated rats compared to controls): significantly higher
- protection of brain tissues from ischemic injury (chopped whole brain): protected

Structure (SMILES): CN(CC(=O)O)C(=N)N [Cr, creatine, reference compound]
- ATP and CrP lost (isolated rabbit hearts [7]; isolated ischemic rabbit hearts, control treatment): more than 95%
